Test results published in ChEMBL document CHEMBL4706548, “3-Methylthiazolo[3,2-a]benzimidazole-benzenesulfonamide conjugates as novel carbonic anhydrase inhibitors endowed with anticancer activity: Design, synthesis, biological and molecular modeling studies” (Eur J Med Chem, 2020).
pIC50, pKi: −log10 of the molar value. One block for each compound: values may come before it.

Tests used:
Carbonic anhydrase 9 = Carbonic anhydrase 9 (Homo sapiens, UniProt Q16790); experiment: Inhibition of human CA9 preincubated for 15 mins prior to testing by phenol red-based stopped-flow CO2 hydration assay
MCF7 [1] = experiment: Antiproliferative activity against human MCF7 cells assessed as reduction in cell viability incubated for 48 hrs under normaxic condition by MTT assay; conditions: MCF7, 48 h
MCF7 [2] = experiment: Antiproliferative activity against human MCF7 cells assessed as reduction in cell viability incubated for 48 hrs under chemically-induced hypoxic condition by MTT assay; conditions: MCF7, 48 h
MDA-MB-231 [3] = experiment: Antiproliferative activity against human MDA-MB-231 cells assessed as reduction in cell viability incubated for 48 hrs under normaxic condition by MTT assay; conditions: MDA-MB-231, 48 h
MDA-MB-231 [4] = experiment: Antiproliferative activity against human MDA-MB-231 cells assessed as reduction in cell viability incubated for 48 hrs under chemically-induced hypoxic condition by MTT assay; conditions: MDA-MB-231, 48 h
MCF7 [5] = experiment: Induction of cell cycle arrest in human MCF7 cells assessed as decrease in G0/G1 cells at IC50 concentration incubated for 24 hrs by propidium iodide staining based flow cytometry (reference value: 52.63%); format: functional; set-up: scale not given: the % may be the effect or the level left
MDA-MB-231 [6] = experiment: Induction of cell cycle arrest in human MDA-MB-231 cells assessed as decrease in G0/G1 cells at IC50 concentration incubated for 24 hrs by propidium iodide staining based flow cytometry (reference value: 56.42%); format: functional; set-up: scale not given: the % may be the effect or the level left
MCF7 [7] = experiment: Induction of apoptosis in human MCF7 cells assessed as early apoptotic cells at […] measured after 24 hrs by Annexin V-FITC/propidium iodide staining based flow cytometry (reference value: 0.42 %); format: functional; set-up: dose or concentration left out as unconfirmed
MCF7 [8] = experiment: Induction of apoptosis in human MCF7 cells assessed as late apoptotic cells at […] measured after 24 hrs by Annexin V-FITC/propidium iodide staining based flow cytometry (reference value: 0.29 %); format: functional; set-up: dose or concentration left out as unconfirmed
MCF7 [9] = experiment: Induction of apoptosis in human MCF7 cells assessed as necrotic cells at […] measured after 24 hrs by Annexin V-FITC/propidium iodide staining based flow cytometry (reference value: 1.15 %); format: functional; set-up: dose or concentration left out as unconfirmed
MDA-MB-231 [10] = experiment: Induction of apoptosis in human MDA-MB-231 cells assessed as early apoptotic cells at […] measured after 24 hrs by Annexin V-FITC/propidium iodide staining based flow cytometry (reference value: 0.56 %); format: functional; set-up: dose or concentration left out as unconfirmed
MDA-MB-231 [11] = experiment: Induction of apoptosis in human MDA-MB-231 cells assessed as late apoptotic cells at […] measured after 24 hrs by Annexin V-FITC/propidium iodide staining based flow cytometry (reference value: 0.24 %); format: functional; set-up: dose or concentration left out as unconfirmed
MDA-MB-231 [12] = experiment: Induction of apoptosis in human MDA-MB-231 cells assessed as necrotic cells at […] measured after 24 hrs by Annexin V-FITC/propidium iodide staining based flow cytometry (reference value: 0.64 %); format: functional; set-up: dose or concentration left out as unconfirmed
Carbonic anhydrase 1 = Carbonic anhydrase 1 (Homo sapiens, UniProt P00915); experiment: Inhibition of human CA1 preincubated for 15 mins prior to testing by phenol red-based stopped-flow CO2 hydration assay
Carbonic anhydrase 1, sequence (P00915 whole entry): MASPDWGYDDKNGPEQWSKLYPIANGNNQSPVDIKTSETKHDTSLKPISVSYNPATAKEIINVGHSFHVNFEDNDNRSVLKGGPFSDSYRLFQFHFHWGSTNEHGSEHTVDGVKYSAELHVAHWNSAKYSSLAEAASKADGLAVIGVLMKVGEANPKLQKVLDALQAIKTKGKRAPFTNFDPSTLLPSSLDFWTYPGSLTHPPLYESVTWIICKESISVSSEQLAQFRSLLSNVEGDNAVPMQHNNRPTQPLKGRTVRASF

SMILES: Cc1c(C(=O)/C=C/Nc2ccc(C(=O)O)cc2)sc2nc3ccccc3n12
pKi (Carbonic anhydrase 9): 6.08

SMILES: Cc1c(NC(=O)Nc2ccccc2S(N)(=O)=O)sc2nc3ccccc3n12
pKi (Carbonic anhydrase 9): 6.08

SMILES: Cc1c(C(=O)/C=C/Nc2ccccc2S(N)(=O)=O)sc2nc3ccccc3n12
pKi (Carbonic anhydrase 9): 6.30

SMILES: Cc1c(NC(=O)NNC(=O)c2ccc(S(N)(=O)=O)cc2)sc2nc3ccccc3n12
pKi (Carbonic anhydrase 9): 7.27

SMILES: Cc1c(C(=O)/C=C/Nc2cccc(S(N)(=O)=O)c2)sc2nc3ccccc3n12
pKi (Carbonic anhydrase 9): 6.09

SMILES: C/C(=N\Nc1ccc(S(N)(=O)=O)cc1)c1sc2nc3ccccc3n2c1C
pKi (Carbonic anhydrase 9): 7.14

SMILES: Cc1c(NC(=O)Nc2cccc(S(N)(=O)=O)c2)sc2nc3ccccc3n12
pKi (Carbonic anhydrase 9): 7.12

SMILES: Cc1c(C(=O)/C=C/NCc2ccc(S(N)(=O)=O)cc2)sc2nc3ccccc3n12
pKi (Carbonic anhydrase 9): 7.25

SMILES: Cc1c(NC(=O)Nc2ccc(S(N)(=O)=O)cc2)sc2nc3ccccc3n12
pKi (Carbonic anhydrase 9): 7.20

SMILES: Cc1c(C(=O)/C=C/Nc2cccc(C(=O)O)c2)sc2nc3ccccc3n12
pKi (Carbonic anhydrase 1): < 5.00 | pKi (Carbonic anhydrase 9): 4.84

Compounds with a higher pKi (Carbonic anhydrase 9), results first:

pKi (Carbonic anhydrase 9): 7.91
SMILES: Cc1c(C(=O)/C=C/NNc2ccc(S(N)(=O)=O)cc2)sc2nc3ccccc3n12

pKi (Carbonic anhydrase 9): 8.01 | pIC50 (MCF7 [1]): 5.09 | pIC50 (MCF7 [2]): 5.03 | pIC50 (MDA-MB-231 [3]): 4.85 | pIC50 (MDA-MB-231 [4]): 4.82
SMILES: Cc1c(C(=O)/C=C/NNC(=O)c2ccc(S(N)(=O)=O)cc2)sc2nc3ccccc3n12

pKi (Carbonic anhydrase 9): 7.51
SMILES: Cc1c(C(=O)/C=C/Nc2cc(Cl)c(S(N)(=O)=O)cc2S(N)(=O)=O)sc2nc3ccccc3n12

pKi (Carbonic anhydrase 9): 7.69
SMILES: Cc1c(C(=O)/C=C/NCCc2ccc(S(N)(=O)=O)cc2)sc2nc3ccccc3n12

pKi (Carbonic anhydrase 9): 8.26 | pIC50 (MCF7 [1]): 4.69 | pIC50 (MCF7 [2]): 4.53 | pIC50 (MDA-MB-231 [3]): 5.00 | pIC50 (MDA-MB-231 [4]): 5.17
SMILES: C/C(=N\NC(=O)c1ccc(S(N)(=O)=O)cc1)c1sc2nc3ccccc3n2c1C

pKi (Carbonic anhydrase 9): 8.21 | pIC50 (MCF7 [1]): 5.82 | pIC50 (MCF7 [2]): 5.63 | pIC50 (MDA-MB-231 [3]): 5.03 | pIC50 (MDA-MB-231 [4]): 5.32
SMILES: Cc1ccc(N/C=C/C(=O)c2sc3nc4ccccc4n3c2C)cc1S(N)(=O)=O
Activity (MCF7 [5]): 34.36% | Activity (MDA-MB-231 [6]): 26.47% | Activity (MCF7 [7]): 3.71% | Activity (MCF7 [8]): 17.16% | Activity (MCF7 [9]): 6.04% | Activity (MDA-MB-231 [10]): 7.21% | Activity (MDA-MB-231 [11]): 15.64% | Activity (MDA-MB-231 [12]): 11.22%

pKi (Carbonic anhydrase 9): 7.44
SMILES: Cc1c(C(=O)/C=C/Nc2ccc(S(N)(=O)=O)cc2)sc2nc3ccccc3n12

pKi (Carbonic anhydrase 9): 7.53
SMILES: Cc1c(NC(=O)NCCc2ccc(S(N)(=O)=O)cc2)sc2nc3ccccc3n12
